ChEMBL document CHEMBL1201862, “PubChem BioAssay data set” (2004)
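Growth conditions: 96-well plates. Treatment: test compound, 48 hours, 5 concentrations. Analysis: linear interpolation between bracketing concentrations; unreached endpoints set to highest concentration. Abbreviation: GI50, concentration required for 50% inhibition of growth.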 Active and inactive are the calls of the source. No stated cut-off is given here; in the data, active = GI50 up to about 1.1 µM and inactive = higher.

Experiments:
Assay in all cases: NCI tumour cell line growth inhibition, 48 h
786-0 = system: 786-0
A498 = system: A498
A549 = system: A549
CCRF-CEM = system: CCRF-CEM
EKVX = system: EKVX
HOP-62 = system: HOP-62
Hs-578T = system: Hs-578T
IGROV-1 = system: IGROV-1
LOX IMVI = system: LOX IMVI
NCI-H226 = system: NCI-H226
NCI-H23 = system: NCI-H23
NCI-H522 = system: NCI-H522
OVCAR-8 = system: OVCAR-8
SF-295 = system: SF-295
SN12C = system: SN12C
SNB-19 = system: SNB-19
SR = system: SR
TK-10 = system: TK-10
U-251 = system: U-251
UACC-257 = system: UACC-257

Row | SMILES | GI50 (786-0) | GI50 (A498) | GI50 (A549) | GI50 (CCRF-CEM) | GI50 (EKVX) | GI50 (HOP-62) | GI50 (Hs-578T) | GI50 (IGROV-1) | GI50 (LOX IMVI) | GI50 (NCI-H226) | GI50 (NCI-H23) | GI50 (NCI-H522) | GI50 (OVCAR-8) | GI50 (SF-295) | GI50 (SN12C) | GI50 (SNB-19) | GI50 (SR) | GI50 (TK-10) | GI50 (U-251) | GI50 (UACC-257)
1 | Cc1cn(C2CC(O)C(CO)O2)c(=O)[nH]c1=O (stereo not given) | 1160 µM (inactive) | > 4670 µM (inactive) | 689 µM (inactive) | 54.7 µM (inactive) | 2380 µM (inactive) | 1380 µM (inactive) | 3900 µM (inactive) | > 4900 µM (inactive) | 1310 µM (inactive) | 3780 µM (inactive) | 1020 µM (inactive) | 1690 µM (inactive) | 1590 µM (inactive) | 2290 µM (inactive) | 1220 µM (inactive) | 1730 µM (inactive) | > 2020 µM (inactive) | > 5000 µM (inactive) | 1530 µM (inactive) | 3760 µM (inactive)
2 | COC(=O)C(Cc1ccccc1)NC(=O)CNC(=O)CSc1nnc(COc2ccc(Cl)cc2)n1-c1ccccc1 (stereo not given) | 16.7 µM (inactive) | 15.5 µM (inactive) | 17.8 µM (inactive) | 2.86 µM (inactive) | 20.4 µM (inactive) | 17.7 µM (inactive) | 26.5 µM (inactive) | 15.4 µM (inactive) | 3.69 µM (inactive) | 16.5 µM (inactive) | 18.7 µM (inactive) | 2.27 µM (inactive) | 13.7 µM (inactive) | 17.8 µM (inactive) | 17.9 µM (inactive) | 17.2 µM (inactive) | 2.64 µM (inactive) | 14.5 µM (inactive) | 18.2 µM (inactive) | 15.2 µM (inactive)
3 | CCN(CC)CCC(=O)N1C/C(=C/c2ccccc2)C(=O)/C(=C\c2ccccc2)C1 | 2.16 µM (inactive) | 3.96 µM (inactive) | 4.76 µM (inactive) | 0.219 µM (active) | 3.42 µM (inactive) | 13.2 µM (inactive) | < 0.01 µM (active) | 3.03 µM (inactive) | 0.415 µM (active) | 5.32 µM (inactive) | 1.42 µM (inactive) | 0.746 µM (active) | 1.35 µM (inactive) | 2.11 µM (inactive) | 1.3 µM (inactive) | 2.2 µM (inactive) | 0.344 µM (active) | 6.58 µM (inactive) | 0.762 µM (active) | 2.1 µM (inactive)
4 | O=c1nc2n(CCO)c(-c3ccccc3)c(-c3ccccc3)nc-2c(=O)[nH]1 | > 100 µM (inactive) | > 100 µM (inactive) | > 100 µM (inactive) | > 100 µM (inactive) | > 100 µM (inactive) | > 100 µM (inactive) | > 100 µM (inactive) | > 100 µM (inactive) | > 100 µM (inactive) | > 100 µM (inactive) | > 100 µM (inactive) | > 100 µM (inactive) | > 100 µM (inactive) | > 100 µM (inactive) | > 100 µM (inactive) | > 100 µM (inactive) | 40.6 µM (inactive) | > 100 µM (inactive) | > 100 µM (inactive) | > 100 µM (inactive)
5 | CN(C)CCNC(=O)c1ccc(Cl)c2cc3ccccc3nc12 | 0.362 µM (active) | 0.143 µM (active) | 0.389 µM (active) | 0.394 µM (active) | 1.7 µM (inactive) | 1 µM (active) | 0.759 µM (active) | 0.708 µM (active) | 0.23 µM (active) | 0.918 µM (active) | 0.632 µM (active) | 0.612 µM (active) | 0.481 µM (active) | 0.885 µM (active) | 0.577 µM (active) | 0.998 µM (active) | 0.339 µM (active) | 1.07 µM (active) | 0.6 µM (active) | 0.885 µM (active)
6 | N#Cc1c(NC(=S)NCc2ccccc2)sc2c1CCN(N1CCc3c(sc(NC(=S)NCc4ccccc4)c3C#N)C1)C2 | > 100 µM (inactive) | > 100 µM (inactive) | > 100 µM (inactive) | > 100 µM (inactive) | > 100 µM (inactive) | > 100 µM (inactive) | > 100 µM (inactive) | > 100 µM (inactive) | > 100 µM (inactive) | > 100 µM (inactive) | > 100 µM (inactive) | > 100 µM (inactive) | > 100 µM (inactive) | > 100 µM (inactive) | > 100 µM (inactive) | > 100 µM (inactive) | > 100 µM (inactive) | > 100 µM (inactive) | > 100 µM (inactive) | > 100 µM (inactive)
7 | COC1=CC(=O)c2c(O)c3c(c(O)c2C1=O)C=C(C)OC3O (stereo not given) | 3.24 µM (inactive) | 2.12 µM (inactive) | 1.42 µM (inactive) | 1.64 µM (inactive) | 7.35 µM (inactive) | 2.88 µM (inactive) | 2.64 µM (inactive) | 1.98 µM (inactive) | 0.597 µM (active) | 2.9 µM (inactive) | 0.838 µM (active) | 1.45 µM (inactive) | 0.849 µM (active) | 2.09 µM (inactive) | 0.877 µM (active) | 2.48 µM (inactive) | 1.84 µM (inactive) | 2.89 µM (inactive) | 2.48 µM (inactive) | 0.24 µM (active)
